Source: PubChem BioAssay AID226 (DTP/NCI, 2004)
Where “and” joins values, the source holds several entries; their conditions need not be identical. Equal entries are not always repeated. Inconclusive results and toxic doses are left out. How the source made its calls: active means survival T/C of 150% or more; inactive means T/C below 125% in these data.

Test system: B6C3F1 mice, intracerebral ependymoblastoma, median survival T/C
Test: NCI In Vivo Anticancer Drug Screen. Data for tumor model Ependymoblastoma (intracerebral) in B6C3F1 mice
Conditions: endpoint: median survival time, higher = longer survival
Experimental: The antitumor activity of compounds was measured in mice bearing transplantable tumors. Survival or tumor size were measured and the results are expressed as the measurement made in the treated group (T) divided by the measurement made in the vehicle treated control group (C). The tumor model used in this assay is Ependymoblastoma (intracerebral) in B6C3F1 mice

[1] = dose: 4.0 mg/kg/injection, schedule: Q01DX005 (ip), vehicle: saline
[2] = dose: 16.0 mg/kg/injection, schedule: Q01DX005 (ip), vehicle: Klucel (hydroxypropylcellulose) (HPC)
[3] = dose: 32.0 mg/kg/injection, schedule: Q01DX005 (ip), vehicle: Klucel (hydroxypropylcellulose) (HPC)
[4] = dose: 64.0 mg/kg/injection, schedule: Q01DX005 (ip), vehicle: Klucel (hydroxypropylcellulose) (HPC)
[5] = dose: 64.0 mg/kg/injection, schedule: Q01DX005 (ip), vehicle: saline
[6] = dose: 128.0 mg/kg/injection, schedule: Q01DX005 (ip), vehicle: Klucel (hydroxypropylcellulose) (HPC)
[7] = dose: 256.0 mg/kg/injection, schedule: Q01DX005 (ip), vehicle: Klucel (hydroxypropylcellulose) (HPC)
[8] = dose: 256.0 mg/kg/injection, schedule: Q01DX005 (ip), vehicle: saline
[9] = dose: 512.0 mg/kg/injection, schedule: Q01DX005 (ip), vehicle: Klucel (hydroxypropylcellulose) (HPC)
[10] = dose: 1024.0 mg/kg/injection, schedule: Q01DX005 (ip), vehicle: saline
[11] = dose: 8.0 mg/kg/injection, schedule: Q01DX005 (ip), vehicle: Klucel (hydroxypropylcellulose) (HPC)
[12] = dose: 8.0 mg/kg/injection, schedule: Q01DX005 (ip), vehicle: saline with Tween-80
[13] = dose: 16.0 mg/kg/injection, schedule: Q01DX005 (ip), vehicle: saline with Tween-80
[14] = dose: 32.0 mg/kg/injection, schedule: Q01DX005 (ip), vehicle: saline with Tween-80
[15] = dose: 64.0 mg/kg/injection, schedule: Q01DX005 (ip), vehicle: saline with Tween-80
[16] = dose: 128.0 mg/kg/injection, schedule: Q01DX005 (ip), vehicle: saline with Tween-80
[17] = dose: 256.0 mg/kg/injection, schedule: Q01DX005 (ip), vehicle: saline with Tween-80
[18] = dose: 512.0 mg/kg/injection, schedule: Q01DX005 (ip), vehicle: saline with Tween-80
[19] = dose: 128.0 mg/kg/injection, schedule: Q01DX005 (ip), vehicle: saline
[20] = dose: 512.0 mg/kg/injection, schedule: Q01DX005 (ip), vehicle: saline

Measured: T/C

CCOC(=O)CNC(=O)CCCCSc1ncnc2nc[nH]c12
inactive: [1] 106 % of control | dose: 16.0 mg/kg/injection, schedule: Q01DX001 (oral), vehicle: Klucel (hydroxypropylcellulose) (HPC) 95 % of control | [2] 100 % of control and 105 % of control | dose: 16.0 mg/kg/injection, schedule: Q01DX005 (ip), vehicle: saline 95 % of control and 101 % of control | [3] 96 % of control | dose: 64.0 mg/kg/injection, schedule: Q01DX001 (oral), vehicle: Klucel (hydroxypropylcellulose) (HPC) 92 % of control | [4] 95 % of control and 104 % of control and 109 % of control | [5] 96 % of control and 109 % of control | [6] 98 % of control | dose: 256.0 mg/kg/injection, schedule: Q01DX001 (oral), vehicle: Klucel (hydroxypropylcellulose) (HPC) 105 % of control | [7] 102 % of control and 108 % of control | [8] 105 % of control and 112 % of control | [9] 96 % of control | dose: 1024.0 mg/kg/injection, schedule: Q01DX005 (ip), vehicle: Klucel (hydroxypropylcellulose) (HPC) 100 % of control and 119 % of control and 121 % of control | [10] 111 % of control and 124 % of control

COc1cc([C@@H]2c3cc4c(cc3[C@@H](OC3OC5COC(C)OC5C(O)C3O)[C@H]3COC(=O)[C@H]23)OCO4)cc(OC)c1O (some centres not stated)
inactive: dose: 0.5 mg/kg/injection, schedule: Q01DX005 (ip), vehicle: suspension in saline 101 % of control | dose: 1.0 mg/kg/injection, schedule: Q01DX005 (ip), vehicle: suspension in saline 100 % of control | dose: 2.0 mg/kg/injection, schedule: Q01DX005 (ip), vehicle: suspension in saline 110 % of control and 114 % of control | dose: 4.0 mg/kg/injection, schedule: Q01DX005 (ip), vehicle: suspension in saline 112 % of control and 120 % of control | dose: 16.0 mg/kg/injection, schedule: Q01DX005 (ip), vehicle: suspension in saline 102 % of control

C1CCC2C[N-]CCC2C1.C1CCC2C[N-]CCC2C1.C1CCC2C[N-]CCC2C1.C1CCC2C[N-]CCC2C1.[Cl][Rh][Cl] (configuration not stated)
inactive: dose: 2.0 mg/kg/injection, schedule: Q01DX005 (ip), vehicle: dextrose 102 % of control | dose: 4.0 mg/kg/injection, schedule: Q01DX005 (ip), vehicle: dextrose 117 % of control

C#C[C@]1(O)CC[C@H]2[C@@H]3CCc4cc(O)ccc4[C@H]3CC[C@@]21C
inactive: [11] 97 % of control and 103 % of control | [2] 98 % of control and 109 % of control | [3] 100 % of control and 106 % of control | [4] 97 % of control and 119 % of control | [6] 104 % of control and 107 % of control | [7] 104 % of control and 124 % of control | [9] 109 % of control and 111 % of control

CCCCCC(=O)O[C@]1(C(C)=O)CC[C@H]2[C@@H]3CCC4=CC(=O)CC[C@]4(C)[C@H]3CC[C@@]21C
inactive: [11] 105 % of control | dose: 8.0 mg/kg/injection, schedule: Q01DX005 (ip), vehicle: saline + alcohol 96 % of control | [12] 95 % of control and 105 % of control | [2] 106 % of control | dose: 16.0 mg/kg/injection, schedule: Q01DX005 (ip), vehicle: saline + alcohol 106 % of control | [13] 115 % of control and 89 % of control | [3] 87 % of control | dose: 32.0 mg/kg/injection, schedule: Q01DX005 (ip), vehicle: saline + alcohol 102 % of control | [14] 98 % of control and 117 % of control | [4] 101 % of control | dose: 64.0 mg/kg/injection, schedule: Q01DX005 (ip), vehicle: saline + alcohol 104 % of control | [15] 99 % of control and 105 % of control | [6] 86 % of control | dose: 128.0 mg/kg/injection, schedule: Q01DX005 (ip), vehicle: saline + alcohol 102 % of control | [16] 104 % of control and 107 % of control | [7] 95 % of control | dose: 256.0 mg/kg/injection, schedule: Q01DX005 (ip), vehicle: saline + alcohol 102 % of control | [17] 98 % of control and 107 % of control | [9] 95 % of control | dose: 512.0 mg/kg/injection, schedule: Q01DX005 (ip), vehicle: saline + alcohol 113 % of control | [18] 95 % of control and 105 % of control

O=c1ccn(C2OC(CO)C(O)C2O)c(=O)[nH]1 (configuration not stated)
inactive: [15] 113 % of control | [5] 109 % of control | [16] 90 % of control | [19] 94 % of control | [17] 109 % of control | [8] 100 % of control | [18] 99 % of control | [20] 94 % of control | dose: 1024.0 mg/kg/injection, schedule: Q01DX005 (ip), vehicle: saline with Tween-80 99 % of control | [10] 96 % of control

CC(=O)OCC1OC(n2cnc3c(=S)nc(N)[nH]c32)C(OC(C)=O)C1OC(C)=O (configuration not stated)
inactive: dose: 3.12 mg/kg/injection, schedule: Q01DX005 (ip), vehicle: saline 102 % of control and 109 % of control | dose: 6.25 mg/kg/injection, schedule: Q01DX005 (ip), vehicle: saline 104 % of control and 105 % of control and 116 % of control | dose: 12.5 mg/kg/injection, schedule: Q01DX005 (ip), vehicle: saline 98 % of control and 110 % of control | dose: 25.0 mg/kg/injection, schedule: Q01DX005 (ip), vehicle: saline 104 % of control

CN(C)/N=N/c1nc[nH]c1C(N)=O
active: dose: 100.0 mg/kg/injection, schedule: Q01DX005 (ip), vehicle: saline with Tween-80 156 % of control | [16] 155 % of control
inactive: dose: 3.12 mg/kg/injection, schedule: Q01DX005 (ip), vehicle: saline with Tween-80 120 % of control | dose: 6.25 mg/kg/injection, schedule: Q01DX005 (ip), vehicle: saline with Tween-80 114 % of control | dose: 12.5 mg/kg/injection, schedule: Q01DX005 (ip), vehicle: Klucel (hydroxypropylcellulose) (HPC) 115 % of control | [13] 111 % of control | dose: 25.0 mg/kg/injection, schedule: Q01DX005 (ip), vehicle: Klucel (hydroxypropylcellulose) (HPC) 114 % of control | dose: 50.0 mg/kg/injection, schedule: Q01DX005 (ip), vehicle: Klucel (hydroxypropylcellulose) (HPC) 120 % of control

Nc1nc2c(c(=O)[nH]1)N(C=O)C(CNc1ccc(C(=O)N[C@@H](CCC(=O)O)C(=O)O)cc1)CN2 (some centres not stated)
inactive: [16] 101 % of control | [19] 104 % of control | dose: 150.0 mg/kg/injection, schedule: Q04DX003 (ip), vehicle: saline 104 % of control | [17] 96 % of control | [8] 98 % of control | dose: 300.0 mg/kg/injection, schedule: Q04DX003 (ip), vehicle: saline 115 % of control | [18] 101 % of control | [20] 96 % of control | dose: 600.0 mg/kg/injection, schedule: Q04DX003 (ip), vehicle: saline 101 % of control | dose: 1200.0 mg/kg/injection, schedule: Q04DX003 (ip), vehicle: saline 115 % of control

O=NN(CCCl)C(=O)NC1OC(CO)C(O)C(O)C1O (configuration not stated)
inactive: dose: 0.31 mg/kg/injection, schedule: Q01DX009 (ip), vehicle: saline 104 % of control | dose: 0.63 mg/kg/injection, schedule: Q01DX009 (ip), vehicle: saline 115 % of control | dose: 1.0 mg/kg/injection, schedule: Q01DX005 (ip), vehicle: saline 119 % of control | dose: 2.0 mg/kg/injection, schedule: Q01DX005 (ip), vehicle: saline 113 % of control | dose: 4.0 mg/kg/injection, schedule: Q01DX001 (ip), vehicle: saline 108 % of control | [1] 122 % of control | dose: 8.0 mg/kg/injection, schedule: Q01DX001 (ip), vehicle: saline 105 % of control | dose: 16.0 mg/kg/injection, schedule: Q01DX001 (ip), vehicle: saline 105 % of control | dose: 32.0 mg/kg/injection, schedule: Q01DX001 (ip), vehicle: saline 100 % of control | dose: 64.0 mg/kg/injection, schedule: Q01DX001 (ip), vehicle: saline 108 % of control | dose: 128.0 mg/kg/injection, schedule: Q01DX001 (ip), vehicle: saline 94 % of control

COC(=O)C(Cc1ccc(N(CCCl)CCCl)cc1)N=NNc1nc[nH]c1C(N)=O (configuration not stated)
inactive: dose: 4.0 mg/kg/injection, schedule: Q01DX005 (ip), vehicle: saline with Tween-80 107 % of control | [12] 101 % of control and 112 % of control | [13] 104 % of control and 118 % of control | [14] 123 % of control
